Experimental findings from article PMC10239507, “Development of allosteric and selective CDK2 inhibitors for contraception with negative cooperativity to cyclin binding” (Nature Communications, 2023) are described below.

Molecules are shown by their SMILES.

What all share (experiment): biochemical
Assay [1] concerns the target T1, 371 kinases (kinase named in each endpoint) (Homo sapiens, UniProt Q16832).
T1 construct: purchased Reaction Biology
To be noted: DDR2.

Assay [2] deals with T2, 371 kinases (kinase named in each endpoint) (Homo sapiens, UniProt P53778).
T2 construct: purchased Reaction Biology
T2 sequence (P53778 whole entry): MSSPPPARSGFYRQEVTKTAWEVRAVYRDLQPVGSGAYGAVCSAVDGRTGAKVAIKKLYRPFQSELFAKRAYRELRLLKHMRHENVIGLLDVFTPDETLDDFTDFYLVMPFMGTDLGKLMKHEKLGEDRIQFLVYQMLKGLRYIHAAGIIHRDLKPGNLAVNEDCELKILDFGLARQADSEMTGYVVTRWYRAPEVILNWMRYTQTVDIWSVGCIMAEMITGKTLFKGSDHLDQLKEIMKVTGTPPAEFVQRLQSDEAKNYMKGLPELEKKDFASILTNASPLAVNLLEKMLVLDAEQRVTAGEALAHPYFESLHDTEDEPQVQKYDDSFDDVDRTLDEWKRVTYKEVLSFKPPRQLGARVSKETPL
To be noted: P38G.

The target in assay [3] is T3, 371 kinases (kinase named in each endpoint) (Homo sapiens, UniProt Q9H0K1).
T3 construct: purchased Reaction Biology
T3 sequence (Q9H0K1 whole entry): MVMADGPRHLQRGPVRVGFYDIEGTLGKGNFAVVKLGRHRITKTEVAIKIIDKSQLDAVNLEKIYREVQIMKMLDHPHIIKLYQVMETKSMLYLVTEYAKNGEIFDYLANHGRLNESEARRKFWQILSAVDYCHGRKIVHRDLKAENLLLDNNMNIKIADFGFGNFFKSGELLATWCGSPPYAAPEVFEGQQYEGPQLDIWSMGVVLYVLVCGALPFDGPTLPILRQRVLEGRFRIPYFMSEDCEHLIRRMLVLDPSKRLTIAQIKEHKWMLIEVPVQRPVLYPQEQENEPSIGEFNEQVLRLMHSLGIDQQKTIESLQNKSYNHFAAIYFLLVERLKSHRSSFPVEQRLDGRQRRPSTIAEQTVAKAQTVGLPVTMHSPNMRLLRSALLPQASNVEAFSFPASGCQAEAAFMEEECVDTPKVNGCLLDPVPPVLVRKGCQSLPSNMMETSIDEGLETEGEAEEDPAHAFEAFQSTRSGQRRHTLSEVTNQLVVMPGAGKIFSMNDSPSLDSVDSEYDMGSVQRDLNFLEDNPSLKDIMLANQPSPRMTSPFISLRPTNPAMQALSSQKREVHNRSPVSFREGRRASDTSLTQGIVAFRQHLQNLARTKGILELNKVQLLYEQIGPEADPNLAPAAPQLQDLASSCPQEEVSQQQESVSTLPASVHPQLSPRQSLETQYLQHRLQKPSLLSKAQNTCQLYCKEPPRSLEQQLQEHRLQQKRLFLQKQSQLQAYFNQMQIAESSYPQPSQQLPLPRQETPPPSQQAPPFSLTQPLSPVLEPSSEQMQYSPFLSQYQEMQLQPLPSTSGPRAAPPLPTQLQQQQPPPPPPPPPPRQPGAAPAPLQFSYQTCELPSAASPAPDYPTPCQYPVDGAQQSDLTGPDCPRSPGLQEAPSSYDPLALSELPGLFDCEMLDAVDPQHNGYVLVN
To be noted: SIK2.

Assay [4] concerns the target T4, 371 kinases (kinase named in each endpoint) (Homo sapiens, UniProt Q9NYL2).
T4 construct: purchased Reaction Biology
The conditions noted are these: ZAK/MLTK.

Assay [5] concerns the target T5, 371 kinases (kinase named in each endpoint) (Homo sapiens, UniProt P22455).
T5 construct: purchased Reaction Biology
To be noted: FGFR4.

Assay [6] concerns the target T6, 371 kinases (kinase named in each endpoint) (Homo sapiens, UniProt O14578).
T6 construct: purchased Reaction Biology
To be noted: STK21/CIT.

In assay [7] the target is T7, 371 kinases (kinase named in each endpoint) (Homo sapiens, UniProt O43187).
T7 construct: purchased Reaction Biology
T7 sequence (O43187 whole entry): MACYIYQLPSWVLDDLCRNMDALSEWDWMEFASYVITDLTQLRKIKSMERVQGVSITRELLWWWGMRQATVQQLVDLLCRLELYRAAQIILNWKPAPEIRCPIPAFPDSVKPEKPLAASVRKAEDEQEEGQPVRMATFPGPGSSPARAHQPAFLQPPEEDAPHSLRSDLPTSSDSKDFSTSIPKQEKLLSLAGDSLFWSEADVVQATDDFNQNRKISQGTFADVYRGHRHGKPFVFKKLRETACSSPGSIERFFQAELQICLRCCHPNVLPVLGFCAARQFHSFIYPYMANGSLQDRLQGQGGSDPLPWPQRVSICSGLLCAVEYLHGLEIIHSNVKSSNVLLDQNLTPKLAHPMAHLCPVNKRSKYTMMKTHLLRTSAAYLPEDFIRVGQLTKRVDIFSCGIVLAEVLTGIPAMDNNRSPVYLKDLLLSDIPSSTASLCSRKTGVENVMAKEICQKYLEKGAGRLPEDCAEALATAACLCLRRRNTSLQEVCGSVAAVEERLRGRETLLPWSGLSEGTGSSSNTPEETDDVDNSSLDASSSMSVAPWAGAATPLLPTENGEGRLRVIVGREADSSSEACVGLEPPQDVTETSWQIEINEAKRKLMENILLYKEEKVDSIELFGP
To be noted: IRAK2.

T6 sequence (O14578 whole entry): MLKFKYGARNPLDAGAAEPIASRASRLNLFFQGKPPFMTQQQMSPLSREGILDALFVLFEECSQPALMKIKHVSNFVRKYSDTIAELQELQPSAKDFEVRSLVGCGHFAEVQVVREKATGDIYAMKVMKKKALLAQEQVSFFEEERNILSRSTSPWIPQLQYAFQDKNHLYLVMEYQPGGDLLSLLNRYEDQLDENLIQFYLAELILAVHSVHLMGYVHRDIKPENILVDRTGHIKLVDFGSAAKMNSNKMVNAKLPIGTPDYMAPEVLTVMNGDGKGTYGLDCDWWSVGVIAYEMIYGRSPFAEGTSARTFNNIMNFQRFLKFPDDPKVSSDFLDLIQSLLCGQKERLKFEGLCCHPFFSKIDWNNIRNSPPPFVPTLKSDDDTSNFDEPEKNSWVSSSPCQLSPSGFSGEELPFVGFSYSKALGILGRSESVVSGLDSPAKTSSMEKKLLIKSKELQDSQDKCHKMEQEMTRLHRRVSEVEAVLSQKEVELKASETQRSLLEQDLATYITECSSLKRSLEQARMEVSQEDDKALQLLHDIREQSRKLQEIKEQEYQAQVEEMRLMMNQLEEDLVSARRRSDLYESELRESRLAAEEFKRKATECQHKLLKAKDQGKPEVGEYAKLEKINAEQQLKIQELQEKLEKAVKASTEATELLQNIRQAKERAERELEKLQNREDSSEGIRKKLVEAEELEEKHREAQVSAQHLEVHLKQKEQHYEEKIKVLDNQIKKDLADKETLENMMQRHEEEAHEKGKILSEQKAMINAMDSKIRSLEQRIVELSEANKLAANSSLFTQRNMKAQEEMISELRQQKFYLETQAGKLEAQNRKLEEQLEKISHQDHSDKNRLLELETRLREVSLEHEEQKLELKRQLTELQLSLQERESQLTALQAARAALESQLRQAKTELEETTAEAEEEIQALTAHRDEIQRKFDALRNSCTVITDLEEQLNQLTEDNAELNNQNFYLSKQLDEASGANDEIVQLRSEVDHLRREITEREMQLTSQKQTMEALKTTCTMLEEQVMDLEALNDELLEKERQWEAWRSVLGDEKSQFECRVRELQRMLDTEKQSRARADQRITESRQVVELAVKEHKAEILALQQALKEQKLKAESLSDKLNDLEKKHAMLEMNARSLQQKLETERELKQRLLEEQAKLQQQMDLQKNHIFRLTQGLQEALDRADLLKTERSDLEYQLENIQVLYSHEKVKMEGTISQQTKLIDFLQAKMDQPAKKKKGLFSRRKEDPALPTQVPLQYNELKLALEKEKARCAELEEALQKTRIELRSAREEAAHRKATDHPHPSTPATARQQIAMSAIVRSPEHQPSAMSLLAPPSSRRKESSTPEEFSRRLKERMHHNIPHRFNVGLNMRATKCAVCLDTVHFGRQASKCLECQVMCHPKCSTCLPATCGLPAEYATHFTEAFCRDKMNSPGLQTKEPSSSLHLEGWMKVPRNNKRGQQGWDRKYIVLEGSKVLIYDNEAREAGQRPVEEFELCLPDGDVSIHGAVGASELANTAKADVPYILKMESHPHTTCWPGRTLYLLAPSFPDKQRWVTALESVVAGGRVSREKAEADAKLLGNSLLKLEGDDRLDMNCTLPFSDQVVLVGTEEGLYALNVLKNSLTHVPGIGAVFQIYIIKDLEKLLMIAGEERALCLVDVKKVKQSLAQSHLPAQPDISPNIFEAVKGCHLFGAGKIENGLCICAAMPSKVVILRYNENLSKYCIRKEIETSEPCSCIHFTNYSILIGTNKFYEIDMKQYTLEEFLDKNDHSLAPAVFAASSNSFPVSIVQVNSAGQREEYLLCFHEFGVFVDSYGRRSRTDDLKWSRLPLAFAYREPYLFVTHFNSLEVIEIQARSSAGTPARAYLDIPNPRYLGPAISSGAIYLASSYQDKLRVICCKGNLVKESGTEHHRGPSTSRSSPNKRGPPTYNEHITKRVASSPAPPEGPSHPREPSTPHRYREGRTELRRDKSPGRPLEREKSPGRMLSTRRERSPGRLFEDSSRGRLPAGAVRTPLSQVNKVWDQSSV
T1 sequence (Q16832 22-855): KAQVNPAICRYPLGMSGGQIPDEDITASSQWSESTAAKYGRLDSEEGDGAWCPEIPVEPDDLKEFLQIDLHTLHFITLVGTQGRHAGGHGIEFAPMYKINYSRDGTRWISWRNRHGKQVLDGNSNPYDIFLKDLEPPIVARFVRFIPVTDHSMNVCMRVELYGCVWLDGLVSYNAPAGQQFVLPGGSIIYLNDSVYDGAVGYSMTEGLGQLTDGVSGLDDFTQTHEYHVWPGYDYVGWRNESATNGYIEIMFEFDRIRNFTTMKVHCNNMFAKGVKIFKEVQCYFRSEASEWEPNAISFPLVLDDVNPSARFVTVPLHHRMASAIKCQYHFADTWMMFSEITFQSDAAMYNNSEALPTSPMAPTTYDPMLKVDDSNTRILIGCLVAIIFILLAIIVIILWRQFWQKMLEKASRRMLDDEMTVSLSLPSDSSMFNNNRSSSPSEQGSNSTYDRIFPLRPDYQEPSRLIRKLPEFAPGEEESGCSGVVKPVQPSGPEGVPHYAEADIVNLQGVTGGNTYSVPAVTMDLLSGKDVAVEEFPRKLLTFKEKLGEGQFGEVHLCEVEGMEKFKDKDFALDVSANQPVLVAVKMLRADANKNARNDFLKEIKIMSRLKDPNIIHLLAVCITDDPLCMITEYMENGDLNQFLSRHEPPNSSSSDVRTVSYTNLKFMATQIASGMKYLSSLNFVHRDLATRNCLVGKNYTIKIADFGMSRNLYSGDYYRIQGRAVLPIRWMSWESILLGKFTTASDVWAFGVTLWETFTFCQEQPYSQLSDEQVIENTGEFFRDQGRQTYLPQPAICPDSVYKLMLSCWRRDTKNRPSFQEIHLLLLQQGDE

Turning to `O=C(O)c1cc(C(F)(F)F)ccc1NCCc1c[nH]c2cc(Br)ccc12` [Compound 5, 2-((2-(6-Bromo-1H-indol-3-yl)ethyl)amino)−5-(trifluoromethyl)benzoic Acid], the activity at 10 µM stood at 103 ± 3.6% in assay [1]; 107 ± 1.5% in assay [2]; 81 ± 0.3% in assay [3]; 96.9 ± 0.2% in assay [4]; 63.4 ± 6.7% in assay [5]; 102.1 ± 0.3% in assay [6]. The activity at 10 µM in assay [7] came to 145 ± 0.9%.
